Patent US20090215859A1, “Compositions and methods for modulating dhr96” (priority 2004, published 2009)

How the values were obtained:
DHR38 = conditions: cultured larval organs; cited from earlier work
[1] = solvent or supplied form; cited from earlier work
C. elegans nhr-8 mutant = conditions: mutation in the nuclear receptor nhr-8 gene; cited from earlier work
[2] = tested on: Cyp6a2 and Cyp6a8 transcription; assay: Northern blot hybridization of Cyp transcription in adult flies treated with phenobarbital; conditions: adult flies treated with 0.3%, 1%, and 3% phenobarbital
Method: Each treatment is done in triplicate. RNA is extracted from each set of animals, purified by TRIzol extraction (Gibco BRL) followed by RNeasy column chromatography (Qiagen), and ethanol precipitation. The RNA is then labeled and hybridized to Affymetrix GeneChip® Drosophila Genome 2.0 arrays designed to detect 18,500 Drosophila transcripts. Data is then analyzed using DChip 1.3 (http://biosun1.harvard.edu/complab/dchip/) and Significance Analysis of Microarrays (SAM).

CC(C)(O)CC[C@@H](O)[C@](C)(O)[C@H]1CC[C@@]2(O)C3=CC(=O)[C@@H]4C[C@H](O)[C@@H](O)C[C@]4(C)[C@H]3CC[C@]12C [3-epi-20-hydroxyecdysone]
Activation of DHR38 in the GAL4-LBD system (DHR38): can be activated

CNC(=O)Oc1cccc2ccccc12 [Carbaryl]
Solubility [1]: water

COc1cc2c(c(OC)c1OC)-c1ccc(OC)c(=O)cc1[C@@H](NC(C)=O)CC2 [Colchicine]
Solubility [1]: ethanol | Resistance of nhr-8 mutant to the compound (C. elegans nhr-8 mutant): reduced resistance

COP(=S)(OC)Oc1ccc([N+](=O)[O-])cc1 [Methyl parathion]
Solubility [1]: acetone

O=[N+]([O-])/C=C1\NCCCS1 [Nithiazine]
Solubility [1]: water

CC(=O)[C@H]1[C@H](C#N)C[C@H]2[C@@H]3CC=C4C[C@@H](O)CC[C@]4(C)[C@H]3CC[C@@]21C [PCN]
Solubility [1]: DMSO

C[n+]1ccc(-c2cc[n+](C)cc2)cc1 [Paraquat]
Solubility [1]: water

CO[C@H]1/C=C/O[C@@]2(C)Oc3c(C)c(O)c4c(O)c(c(/C=N/N5CCN(C)CC5)c(O)c4c3C2=O)NC(=O)/C(C)=C\C=C\[C@H](C)[C@H](O)[C@@H](C)[C@@H](O)[C@@H](C)[C@H](OC(C)=O)[C@@H]1C [Rifampicin]
Solubility [1]: DMSO

CCN(CC)C(=S)[S-].O.O.O.[Na+] [Sodium diethyldithiocarbamate trihydrate]
Solubility [1]: water

CCN(CC)CCCC(C)Nc1ccnc2cc(Cl)ccc12 (centres unmarked) [chloroquine]
Resistance of nhr-8 mutant to the compound (C. elegans nhr-8 mutant): reduced resistance

CCC1(c2ccccc2)C(=O)NC(=O)NC1=O [phenobarbital]
Cyp6a2 and Cyp6a8 transcription in the DHR96 mutant [2]: no change in expression | Cyp6a2 and Cyp6a8 transcription in wild type animals [2]: dramatic induction

C[C@H]([C@H](O)CCC(C)(C)O)[C@H]1CC[C@@]2(O)C3=CC(=O)[C@@H]4C[C@@H](O)[C@@H](O)C[C@]4(C)[C@H]3CC[C@]12C [α-ecdysone]
Activation of DHR38 in the GAL4-LBD system (DHR38): can be activated
